The source of these data is patent publication US12655127B2, “Fused ring compound as Wee-1 inhibitor” (WIGEN BIOMEDICINE TECHNOLOGY (SHANGHAI) CO., LTD., priority 2021, dated 2026).

Structures are written as SMILES.

The subject of test [1] is MIA PaCa-2 cells. Nature of the test: In-vitro anti-proliferative activity in combination with gemcitabine on MIA PaCa-2 cells. It is filed as cell-based. The following applies: with 20 nM gemcitabine, 72 h after dosing, intracellular ATP content. The method, then: MIA PaCa-2 cells were seeded on a 384-well plate at 3000 cells/well, and 20 nM gemcitabine was added. After overnight adherence culture, DMSO or the compounds serially diluted 1:5 from 100 nM were added. The viability was assessed 72 h after dosing by measuring the intracellular ATP content. The inhibition percentage of viable cells by the compounds was calculated by comparing with the DMSO group, and the IC50 value was calculated.

Test [2] concerns the target recombinant protein Wee-1 (Homo sapiens, UniProt P30291). Put plainly: Inhibition of enzymatic activity of recombinant protein Wee-1 (HTRF). It is filed as biochemical. The method, then: The inhibitory effect of the compounds on the enzyme activity of recombinant protein Wee-1 was determined by HTRF. The procedures are as follows:
After DMSO or serially diluted compounds (up to 200 nM, 1:5 serially diluted) and recombinant proteins were co-incubated in a kinase buffer at 37° C. for 30 min Fluorescein-PolyGAT and ATP were added, and then the reaction was started by the addition of a substrate. After incubation at room temperature for 90 min, an antibody and a detection solution were added, and after further incubation at room temperature for 60 min, fluorescence values were detected (excitation wavelength: 340 nm, emission wavelengths: 495 and 520 nm). The 520 nm/495 nm fluorescence intensity ratio value was calculated, and compared with that of the DMSO group, and then the inhibition percentages and IC50 values of the compounds were calculated.
For orientation: TR-FRET usually uses a lanthanide donor and a delayed reading to cut background.

Test [3] relates to MIA PaCa-2 cells. Put plainly: In-vitro anti-proliferative activity on MIA PaCa-2 cells. It is filed as cell-based. The following applies: Homo sapiens, 72 h after dosing, intracellular ATP content. The protocol:
MIA PaCa-2 cells were seeded on a 384-well plate at 3000 cells/well. After overnight adherence culture, DMSO or the compounds serially diluted 1:5 from 5 μM were added. The viability was assessed 72 h after dosing by measuring the intracellular ATP content. The inhibition percentage of viable cells by the compounds was calculated by comparing with the DMSO group, and the IC50 value was calculated.

For test [4], the system named is HT29 subcutaneous xenograft tumor. Put plainly: Mouse HT29 subcutaneous xenograft tumor model. It is filed as in vivo. The following applies: gemcitabine 15 mg/kg intraperitoneally once a week. The protocol: HT29 is a colon cancer cell. Each nude mouse was grafted subcutaneously with 5×10^6 HT29 cells. When the tumor grew to 100-200 mm^3, the compound was administered orally once a day alone or in combination with 15 mg/kg of gemcitabine injected intraperitoneally once a week, and the tumor volume was measured twice a week and at the end of treatment. Tumor growth inhibition of the compound was calculated according to the following equation: tumor growth inhibition (TGI)=1−(tumor volume on day 18 in treatment group−tumor volume on day 1 in treatment group)/(tumor volume on day 18 in vehicle control group−tumor volume on day 1 in treatment group).

Sequence of recombinant protein Wee-1 (P30291 whole entry): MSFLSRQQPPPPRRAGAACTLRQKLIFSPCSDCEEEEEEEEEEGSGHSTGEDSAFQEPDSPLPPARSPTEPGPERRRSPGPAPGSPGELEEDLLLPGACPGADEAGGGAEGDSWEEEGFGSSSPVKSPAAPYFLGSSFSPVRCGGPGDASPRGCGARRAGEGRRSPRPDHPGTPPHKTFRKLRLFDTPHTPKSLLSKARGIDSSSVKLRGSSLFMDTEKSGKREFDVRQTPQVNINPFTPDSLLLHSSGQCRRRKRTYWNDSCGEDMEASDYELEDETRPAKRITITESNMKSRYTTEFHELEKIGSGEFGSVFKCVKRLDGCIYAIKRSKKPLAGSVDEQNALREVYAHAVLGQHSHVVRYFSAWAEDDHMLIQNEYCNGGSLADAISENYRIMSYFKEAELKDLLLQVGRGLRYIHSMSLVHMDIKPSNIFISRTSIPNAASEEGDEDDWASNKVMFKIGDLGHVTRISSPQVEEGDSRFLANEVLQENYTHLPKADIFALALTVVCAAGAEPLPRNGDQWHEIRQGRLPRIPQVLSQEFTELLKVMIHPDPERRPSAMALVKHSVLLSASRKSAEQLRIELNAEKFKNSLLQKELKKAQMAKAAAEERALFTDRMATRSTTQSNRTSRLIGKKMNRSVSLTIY

The term IC50 denotes the concentration at which inhibition is half-maximal. Turning to `CN1Cc2cc(Nc3ncc(C#N)c(Nc4cccc(N=S(C)(C)=O)n4)n3)cc3c2[C@@H](CCC3)C1` (single isomer, unassigned) [Compound 3], the IC50 in test [1] was 6.4 nM; in test [2], at most 10 nM; in test [3] it was 1090 nM. In the same order, the values of `CN1Cc2cc(Nc3ncc(C#N)c(Nc4cccc(N=S(C)(C)=O)n4)n3)cc3c2C(CCC3)C1` (stereo not shown) [Compound 1] are 1.9 nM, at most 10 nM and 236 nM. In the same order, the values of `CN1Cc2cc(Nc3ncc(C#N)c(Nc4cccc(N=S(C)(C)=O)n4)n3)cc3c2C(C)(CCC3)C1` (stereo not shown) [Compound 4] are 2.4 nM, at most 10 nM and 968 nM. As to `CN1Cc2cc(Nc3ncc(C#N)c(Nc4cccc(N=S(C)(C)=O)n4)n3)cc3c2[C@](C)(CCC3)C1` [Compound 5], the IC50 is 2.1 nM in test [1], at most 10 nM in test [2] and 1180 nM in test [3]. In the same order, the values of `CN1Cc2cc(Nc3ncc(C#N)c(Nc4cccc(N=S(C)(C)=O)n4)n3)cc3c2[C@@](C)(CCC3)C1` [Compound 6] are 5.3 nM, at most 10 nM and 910 nM. Regarding `COc1c(Nc2ncc(C#N)c(Nc3cccc(N=S(C)(C)=O)n3)n2)cc2c3c1CCCC3CN(C)C2` (stereo not shown) [Compound 49], the IC50 in test [1] is above 100 nM; in test [2], 10 to 50 nM; in test [3] it was above 5000 nM. In the same order, the values of `CN1Cc2cc(Nc3ncc(C#N)c(Nc4cccc(N=S(C)(C)=O)n4)n3)cc3c2C(CC3)C1` (stereo not shown) [Compound 50] are above 100 nM, 10 to 50 nM and 148 nM. In the same order, the values of `CN1Cc2cc(Nc3ncc(C#N)c(Nc4cccc(N=S(C)(C)=O)n4)n3)cc3c2C(CCO3)C1` (stereo not shown) [Compound 64] are 3.5 nM, at most 10 nM and 400 nM.

For `CN1Cc2cc(Nc3ncc(C#N)c(Nc4cccc(N=S(C)(C)=O)n4)n3)cc3c2C1CCC3` (stereo not shown) [Compound 87], the figures for the 50% inhibitory concentration (IC50) in test [1], in test [2] and in test [3] were 1.6 nM, at most 10 nM and 184 nM, respectively. With `CN1Cc2cc(Nc3ncc(C#N)c(Nc4cncc(N=S(C)(C)=O)n4)n3)cc3c2C(CCC3)C1` (stereo not shown) [Compound 105], the IC50 was 2.1 nM in test [1], at most 10 nM in test [2] and 441 nM in test [3].

For `CN1Cc2cc(Nc3ncc(C#N)c(Nc4cc5ccccc5c(N=S(C)(C)=O)n4)n3)cc3c2C(CCC3)C1` (stereo not shown) [Compound 108], the 50% inhibitory concentration (IC50) is 11 nM in test [1], at most 10 nM in test [2] and 225 nM in test [3]. As to `CN1Cc2cc(Nc3ncc(C#N)c(Nc4ccc(F)c(N=S(C)(C)=O)n4)n3)cc3c2C(CCC3)C1` (stereo not shown) [Compound 110], the values for the 50% inhibitory concentration (IC50) in test [1] and in test [3] were 1.1 nM and 186 nM, respectively. Turning to `CN1Cc2cc(Nc3ncc(C#N)c(Nc4nc(N=S(C)(C)=O)ccc4F)n3)cc3c2C(CCC3)C1` (stereo not shown) [Compound 112], the half-maximal inhibitory concentration (IC50) in test [1] is 29 nM; in test [2], at most 10 nM; in test [3] it was above 5000 nM.

As for `COc1ccc(Nc2nc(Nc3cc4c5c(c3)CN(C)CC5CCC4)ncc2C#N)nc1N=S(C)(C)=O` (stereo not shown) [Compound 121], the figures for the IC50 in test [1], in test [2] and in test [3] were 1.4 nM, at most 10 nM and 89 nM, respectively. With `C=Cc1cc(N=S(C)(C)=O)nc(Nc2nc(Nc3cc4c5c(c3)CN(C)CC5CCC4)ncc2C#N)c1` (stereo not shown) [Compound 122], in test [2], the IC50 was at most 10 nM. The same measure, in the same setting: under `COc1ccc(Nc2nc(Nc3cc4c5c(c3)CN(C)CCC5CCC4)ncc2C#N)nc1N=S(C)(C)=O` (stereo not shown) [Compound 123] stands at most 10 nM; under `C=Cc1cc(N=S(C)(C)=O)nc(Nc2nc(Nc3cc4c5c(c3)CC(N(C)C)CCC5CCC4)ncc2C#N)c1` (stereo not shown) [Compound 124], at most 10 nM; under `CN1Cc2cc(Nc3ncc(C#N)c(Nc4cccc(N=S(C)(C)=O)n4)n3)cc3c2C2(CCC3)CC12` (stereo not shown) [Compound 125], at most 10 nM. Still for that read-out and setting: under `CN1Cc2cc(Nc3ncc(C#N)c(Nc4cccc(N=S(C)(C)=O)n4)n3)cc3c2C(C1)CN(C)C3` [Compound 126] stands at most 10 nM; under `CN1Cc2cc(Nc3ncc(C#N)c(Nc4cccc(N=S(C)(C)=O)n4)n3)cc3c2C(CNC3)C1` (stereo not shown) [Compound 127], at most 10 nM; under `CC(=O)N1Cc2cc(Nc3ncc(C#N)c(Nc4cccc(N=S(C)(C)=O)n4)n3)cc3c2C(CN(C)C3)C1` (stereo not shown) [Compound 128], at most 10 nM. Same read-out and setting: the same measure for `CN1Cc2cc(Nc3ncc(C#N)c(Nc4cccc(N=S(C)(C)=O)n4)n3)cc3c2C(C1)N(C)CC3` (stereo not shown) [Compound 129]: at most 10 nM; for `CN1Cc2cc(Nc3ncc(C#N)c(Nc4cccc(N=S(C)(C)=O)n4)n3)cc3c2C(C1)NCC3` (stereo not shown) [Compound 130]: at most 10 nM; for `CN1Cc2cc(Nc3ncc(C#N)c(Nc4cccc(N=S(C)(C)=O)n4)n3)cc3c2C(CCN3C)C1` (stereo not shown) [Compound 131]: at most 10 nM. For the molecule `CN1Cc2cc(Nc3ncc(C#N)c(Nc4cccc(N=S(C)(C)=O)n4)n3)cc3c2C(CCN3)C1` (stereo not shown) [Compound 132], the half-maximal inhibitory concentration (IC50) in test [2] is at most 10 nM.

`CN1Cc2cc(Nc3ncc(C#N)c(Nc4cccc(N=S(C)(C)=O)n4)n3)cc3c2C(CCC3)C1(C)C` (stereo not shown) [Compound 133]: the concentration for half-maximal inhibition (IC50) in test [2] is at most 10 nM. Same read-out and setting: the same measure for `[2H]C([2H])([2H])N1Cc2cc(Nc3ncc(C#N)c(Nc4cccc(N=S(C)(C)=O)n4)n3)cc3c2C(CCC3)C1` (stereo not shown) [Compound 134]: at most 10 nM; for `[2H]c1ccc(Nc2nc(Nc3cc4c5c(c3)CN(C)CC5CCC4)ncc2C#N)nc1N=S(C)(C)=O` (stereo not shown) [Compound 135]: at most 10 nM.

On to `[2H]C([2H])([2H])S(=O)(=Nc1cccc(Nc2nc(Nc3cc4c5c(c3)CN(C)CC5CCC4)ncc2C#N)n1)C([2H])([2H])[2H]` (stereo not shown) [Compound 136], for which the 50% inhibitory concentration (IC50) in test [2] is at most 10 nM.

As for `CN1Cc2cc(Nc3ncc(C#N)c(Nc4cccc(P(C)(C)=O)n4)n3)cc3c2C(CCC3)C1` (stereo not shown) [Compound 137], the 50% inhibitory concentration (IC50) is 26 nM in test [1], at most 10 nM in test [2] and above 5000 nM in test [3]. Turning to `[2H]C1([2H])C2CCCc3cc(Nc4ncc(C#N)c(Nc5cccc(N=S(C)(C)=O)n5)n4)cc(c32)CN1C` (stereo not shown) [Compound 279], in test [2], the IC50 is at most 10 nM. Same read-out and setting: the same measure for `[2H]C1([2H])c2cc(Nc3ncc(C#N)c(Nc4cccc(N=S(C)(C)=O)n4)n3)cc3c2C(CCC3)CN1C` (stereo not shown) [Compound 280]: at most 10 nM; for `CN1Cc2cc(Nc3ncc(C#N)c(Nc4cccc(N=S(C)(C)=O)n4)n3)cc3c2C(CCC3O)C1` (stereo not shown) [Compound 289]: at most 10 nM; for `CN1Cc2cc(Nc3ncc(C#N)c(Nc4cccc(N=S(C)(C)=O)n4)n3)cc3c2C(CCC3N)C1` (stereo not shown) [Compound 290]: at most 10 nM. On the same count and under the same terms, under `CN1Cc2cc(Nc3ncc(C#N)c(Nc4cccc(N=S(C)(C)=O)n4)n3)cc3c2C(CC(O)C3)C1` (stereo not shown) [Compound 291] stands at most 10 nM. In the case of `CN1Cc2cc(Nc3ncc(C#N)c(Nc4cccc(N=S(C)(C)=O)n4)n3)cc3c2C(CC(N)C3)C1` (stereo not shown) [Compound 292], the 50% inhibitory concentration (IC50) in test [2] was at most 10 nM.

In the case of `CN1Cc2cc(Nc3ncc(C#N)c(Nc4cccc(N=S(C)(C)=O)n4)n3)cc3c2C(C1)C(O)CC3` (stereo not shown) [Compound 293], the IC50 in test [2] is at most 10 nM. Take `CN1Cc2cc(Nc3ncc(C#N)c(Nc4cccc(N=S(C)(C)=O)n4)n3)cc3c2C(C1)C(N)CC3` (stereo not shown) [Compound 294]: the IC50 in test [2] is at most 10 nM. Take `Cc1ccc(Nc2nc(Nc3cc4c5c(c3)CN(C)CC5CCC4)ncc2C#N)nc1N=S(C)(C)=O` (stereo not shown) [Compound 295]: the half-inhibitory concentration (IC50) in test [1] was 1.5 nM; in test [2] it was at most 10 nM; in test [3], 72 nM.

As for `CN1Cc2cc(Nc3ncc(C#N)c(Nc4ccc(Cl)c(N=S(C)(C)=O)n4)n3)cc3c2C(CCC3)C1` (stereo not shown) [Compound 296], the IC50 in test [1] was 3.1 nM; in test [2], at most 10 nM; in test [3], 161 nM.

As usually defined, the TGI is how far tumour growth fell short of that in controls. As for `Nc1ccn([C@@H]2O[C@H](CO)[C@@H](O)C2(F)F)c(=O)n1` [Gemcitabine, gemcitabine, reference compound], the TGI in test [4] (day 18, nude mouse HT29 xenograft) stood at 57%. Also, in test [4] (nude mouse HT29 xenograft), the “Tumor volume on day 1 of treatment (mm^3)” value was found to be 112 mm^3 and the “Tumor volume on day 18 of treatment (mm^3)” value was found to be 539 mm^3.
